What was measured:
Type in all cases: cell-based, human
miR-184 [1] = test: Induction of miR-184 in HPEK by differentiation agents (sqRT-PCR); settings: 1 or 5 days
Experimental: FIG. 1: Induction of miR-184 during Ca^2+-dependent HPEK differentiation. […] Data shown represent means +SEM from 3 independent experiments. Expression was normalized to SNORD72 for miR-184 and GAPDH for IVL. Values are presented relative to 0.07 mM Ca^2+ or DMSO-treated controls;
Human progenitor epidermal keratinocytes (HPEK) were isolated from human foreskin or purchased from CellnTec (Bern, Switzerland). For isolation, tissues were washed with phosphate-buffered saline, trimmed of any subcutaneous fat, connective tissues and blood vessels before digestion with 20 mg/ml dispase (Sigma) at 4° C. overnight with further digestion for 1 hour at room temperature. Thereafter, the epidermis was separated and incubated in 0.5% TrpLE (Thermofisher scientific, Cheshire, UK) for 5 min at 37° C., 5% CO2. Keratinocytes were centrifuged (1200 rpm for 5 min) and re-suspended in CnT-Prime (CellnTec) supplemented with 1% penicillin/streptomycin/amphotericin B (PSA) and IsoBoost supplement CnT-ISO (CellnTec) to enhance isolation efficiency. Culture medium was changed every 2-3 days until cells reached 80% confluence with PSA exclusion from the culture medium after the first passage. Keratinocytes were sub-cultured using CnT-Accutase (CellnTec) and re-cultured at 4×10^3 cells per cm^2. For differentiation, keratinocytes were at 3×10^5/well of a 6-well plate in CnT-Prime and allowed to reach confluence before adjusting the medium to 1.5 mM calcium using CaCl2.
(§1) Total RNA was isolated from cells using the AllPrep DNA/RNA/miRNA Universal kit (Qiagen, Manchester, UK). RNA concentration was determined using a NanoDrop™ 2000c. Complementary DNA (cDNA) was synthesised from 400 ng of RNA using the miScript II RT kit (Qiagen) with HiFlex buffer. PCR amplifications were performed with Quantifast SYBR Green and QuantiTect miRNA/universal primers or RT^2 mRNA primer assays, all from Qiagen. Thermocycling was performed on a Rotor-Gene® as follows: 95° C. for 15 min, followed by 40 cycles of 94° C. for 15 s, 55° C. for 30 s and 70° C. for 30 s. Relative expression of miRNA and mRNA determined using the 2^−ΔΔCT relative quantification method (Livak and Schmittgen, 2001).
(§2) Expression of miR-184 in HPEK was evaluated and maintained in parallel cultures under low (0.07 mM) to sustain proliferation or high (1.5 mM) extracellular Ca^2+ to promote differentiation.

involucrin (IVL) = test: IVL expression in HPEK treated with differentiation agents (sqRT-PCR); settings: 100 nM, 5 d, normalized to GAPDH
Experimental: FIG. 1: Induction of miR-184 during Ca^2+-dependent HPEK differentiation. (a) HPEKs grown to confluence were treated with high (1.5 mM) Ca^2+, 100 nM 1,25(OH)D3, 100 nM PMA or dimethyl sulfoxide (DMSO) vehicle for 1 or 5 days (d). (b) Upregulation of the HPEK differentiation marker involucrin (IVL) during 5 d exposure to 1.5 mM Ca^2+, 100 nM 1,25(OH)D3 or 100 nM PMA. Data shown represent means +SEM from 3 independent experiments. Expression was normalized to SNORD72 for miR-184 and GAPDH for IVL. Values are presented relative to 0.07 mM Ca^2+ or DMSO-treated controls;
Human progenitor epidermal keratinocytes (HPEK) were isolated from human foreskin or purchased from CellnTec (Bern, Switzerland). […]
Total RNA was isolated from cells using the AllPrep DNA/RNA/miRNA Universal kit (Qiagen, Manchester, UK). RNA concentration was determined using a NanoDrop™ 2000c. […] PCR amplifications were performed with Quantifast SYBR Green and QuantiTect miRNA/universal primers or RT^2 mRNA primer assays, all from Qiagen. […] Relative expression of miRNA and mRNA determined using the 2^−ΔΔCT relative quantification method (Livak and Schmittgen, 2001).
as §2

UCA1 = test: LncRNA UCA1 induction in scratched HPEK monolayers; settings: 5 days
Experimental: (§3) FIG. 6: Induction of miR-184 in scratched monolayers. Confluent HPEK monolayers were scratched and cells harvested after 5 days in low (0.07 mM) or high (1.5 mM) Ca^2+ media as indicated. The SOCE blockers Gd^3+ and BTP2 and were added 1 h after scratching and refreshed after day 2. (a-d) miR-184 expression normalized to SNORD72. (c-d) LncRNA UCA1 expression normalised to GAPDH; and
as §1
The long non-coding RNA UCA1 (urothelial carcinoma associated 1) has been identified as a competing endogenous RNA (ceRNA) with four predicted miR-184-binding sites (Zhou et al., 2017). The expression of UCA1 in the HPEK was therefore examined. […]

miR-184 [2] = test: miR-184 induction in scratched HPEK monolayers; settings: low Ca2+ (0.07 mM), 5 days
Experimental: as §3
Total RNA was isolated from cells using the AllPrep DNA/RNA/miRNA Universal kit (Qiagen, Manchester, UK). RNA concentration was determined using a NanoDrop™ 2000c. Complementary DNA (cDNA) was synthesised from 400 ng of RNA using the miScript II RT kit (Qiagen) with HiFlex buffer. PCR amplifications were performed with Quantifast SYBR Green and QuantiTect miRNA/universal primers or RT^2 mRNA primer assays, all from Qiagen. […] Relative expression of miRNA and mRNA determined using the 2^−ΔΔCT relative quantification method (Livak and Schmittgen, 2001).
The inventors maintained the HPEK in low Ca^2+ (0.07 mM) medium and allowed them to approach confluence in 6-well plates prior to wounding. Cells were harvested 5 days later and miR-184 expression assessed as described above. […] In contrast, when extracellular Ca^2+ was raised to 1.5 mM to 5 days to evoke HPEK differentiation, only a relatively modest 10-fold rise in miR-184 expression was detected (FIG. 6d). […]

ORAI1 = ORAI1 expression in HPEK; settings: data not shown
Description: To determine whether Ca^2+-dependent induction of miR-184 was associated with SOCE, HPEK were maintained in high Ca^2+ for 5 days in the presence of the SOCE blocker gadolinium (III) Gd^3+ or the pharmacologic ORAI1 inhibitor BTP2. Alternatively, ORAI1 expression was ablated using short-interfering RNA (siRNA) that was transferred into the cells using nucleofection 1 d prior to Ca^2+ elevation.

Compound	effect on miR-184 expression (miR-184 [1]; 100 nM, vs DMSO)	IVL expression (involucrin (IVL))	reduction of UCA1 induction (UCA1)	effect on scratch-evoked induction of miR-184 (miR-184 [2])	effect on ORAI1 expression (ORAI1)	further results
C=C1/C(=C\C=C2/CCC[C@]3(C)[C@@H]([C@H](C)CCCC(C)(C)O)CC[C@@H]23)C[C@@H](O)C[C@@H]1O [1, 25-(OH)2D3, 1, 25-dihydroxyvitamin D3]	did not promote miR-184 expression	evoked robust IVL expression	–	–	–	effect on miR-184 expression (miR-184 [1]; 100 nM, vs DMSO, listed as 1, 25-dihydroxyvitamin D3): neither phorbol ester nor 1, 25-dihydroxyvitamin D3 had any effect
[Cl][Gd]([Cl])[Cl] [Gd^3+, Gadolinium(III) chloride]	–	–	around 50%	abolished the induction of miR-184	little effect on ORAI1 expression	–
CCCCCCCCCCCCCC(=O)O[C@@H]1[C@@H](C)[C@@]2(O)[C@@H](C=C(CO)C[C@]3(O)C(=O)C(C)=C[C@@H]23)[C@@H]2C(C)(C)[C@]12OC(C)=O [PMA, phorbol 12-myristate 13-acetate]	did not promote miR-184 expression	evoked robust IVL expression	–	–	–	effect on miR-184 expression (miR-184 [1]; 100 nM, vs DMSO, listed as phorbol ester): neither phorbol ester nor 1, 25-dihydroxyvitamin D3 had any effect
IFNγ: Interferon gamma, reported to trigger keratinocyte differentiation	–	–	–	–	–	effect on miR-184 expression (miR-184 [1]; 10 ng/ml, data not shown): no induction of miR-184 was observed
Cc1nnsc1C(=O)Nc1ccc(-n2nc(C(F)(F)F)cc2C(F)(F)F)cc1 [BTP2]	–	–	around 50%	abolished the induction of miR-184	little effect on ORAI1 expression	–
